Source: ChEMBL document CHEMBL5614442, “Discovery, synthesis and biological evaluation of novel isoquinoline derivatives as potent indoleamine 2, 3-dioxygenase 1 and tryptophan 2, 3-dioxygenase dual inhibitors” (Eur J Med Chem, 2024)
Active and inactive are the calls of the source. The rule behind the calls is not given here.

Tests used:
[1] = target: T1, Indoleamine 2,3-dioxygenase 1 (Homo sapiens, UniProt P14902); experiment: Inhibition of N-terminal His-tagged recombinant human IDO1 extracted from Escherichia coli Transetta (DE3) using L-tryptophan as substrate preincubated for 5 mins followed by substrate addition and measured after 1 hrs by absorbance based microplate reader
Target sequence in this assay (P14902 whole entry): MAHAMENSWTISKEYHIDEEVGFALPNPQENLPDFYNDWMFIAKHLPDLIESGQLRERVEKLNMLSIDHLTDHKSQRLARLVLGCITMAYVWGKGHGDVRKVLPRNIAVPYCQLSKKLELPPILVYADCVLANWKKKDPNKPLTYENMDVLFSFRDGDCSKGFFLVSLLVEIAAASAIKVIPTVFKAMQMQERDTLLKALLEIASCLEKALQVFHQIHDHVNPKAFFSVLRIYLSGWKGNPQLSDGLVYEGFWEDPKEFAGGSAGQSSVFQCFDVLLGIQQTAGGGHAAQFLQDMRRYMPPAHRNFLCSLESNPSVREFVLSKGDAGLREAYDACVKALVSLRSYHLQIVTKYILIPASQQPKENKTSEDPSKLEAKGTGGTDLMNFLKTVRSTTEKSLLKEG

[2] = target: T2, Tryptophan 2,3-dioxygenase (Homo sapiens, UniProt P48775)
Target sequence in this assay (P48775 whole entry): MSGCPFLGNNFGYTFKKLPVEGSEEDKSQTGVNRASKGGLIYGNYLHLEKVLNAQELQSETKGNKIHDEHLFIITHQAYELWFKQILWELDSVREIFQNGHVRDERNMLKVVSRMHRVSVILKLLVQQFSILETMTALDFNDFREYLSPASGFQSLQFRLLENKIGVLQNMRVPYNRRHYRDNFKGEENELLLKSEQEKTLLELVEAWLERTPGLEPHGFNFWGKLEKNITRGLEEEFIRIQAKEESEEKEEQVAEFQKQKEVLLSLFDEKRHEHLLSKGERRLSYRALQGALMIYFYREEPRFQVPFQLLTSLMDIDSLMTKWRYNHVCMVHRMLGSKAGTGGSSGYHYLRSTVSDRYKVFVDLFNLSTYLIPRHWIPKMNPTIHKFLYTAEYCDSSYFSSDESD

[3] = target: T1, Indoleamine 2,3-dioxygenase 1; experiment: Inhibition of IDO1 in IFN-gamma induced human HeLa cells using L-tryptophan as substrate incubated for 24 hrs by absorbance based microplate analysis; assay type: cell-based
Target sequence in this assay (P14902 whole entry): as the sequence (P14902 whole entry) above

[4] = target: T2, Tryptophan 2,3-dioxygenase; remark: listed apart in the source
Target sequence in this assay (P48775 whole entry): as the sequence (P48775 whole entry) above

[5] = target: T2, Tryptophan 2,3-dioxygenase; experiment: Inhibition of TDO (unknown origin)
Target sequence in this assay (P48775 whole entry, looked up): as the sequence (P48775 whole entry) above

[6] = target: T1, Indoleamine 2,3-dioxygenase 1; experiment: Inhibition of IDO1 (unknown origin)
Target sequence in this assay (P14902 whole entry, looked up): as the sequence (P14902 whole entry) above

Row | Structure (SMILES) | IC50 [1] [µM] | IC50 [2] [µM] | IC50 [3] [µM] | IC50 [4] [µM] | inhibition [5] | inhibition [6]
1 | COc1ccc2cc(-c3ccc(F)cc3)ncc2c1O | > 100 | 51 | – | – | – | –
2 | COc1ccc(-c2ccc3c(O)c(OC)ccc3n2)cc1 | > 100 | > 100 | – | – | – | –
3 | COc1ccc2nc(-c3ccccc3)ncc2c1O | > 100 | > 100 | – | – | – | –
4 | COc1ccc2cc(-c3ccc(C)cc3)ncc2c1O | > 100 | > 100 | – | – | – | –
5 | COc1ccc2cc(-c3ccc(C(C)(C)C)cc3)ncc2c1OC | > 100 | 23.1 | – | – | – | –
6 | COc1ccc2nc(-c3ccccc3)ccc2c1O | > 100 | 5.6 | – | – | – | –
7 | COc1ccc2cc(-c3ccc(C(F)(F)F)cc3)ncc2c1O | 15.3 | 7.28 | – | – | – | –
8 | COc1ccc2cc(-c3cc4ccccc4o3)ncc2c1OC | > 100 | > 100 | – | – | – | –
9 | Oc1ccc2cc(-c3ccc4c(c3)OCO4)ncc2c1 | > 100 | > 100 | – | – | – | –
10 | COc1ccc2cc(C34C[C@H]5C[C@@H](C3)C[C@@H](C4)C5)ncc2c1OC | 17.8 | 2.64 | – | – | – | –
11 | COc1ccc2cc(-c3ccc(F)cc3)ncc2c1OC | 42.6 | 9.08 | – | – | – | –
12 | COc1ccc2cc3[n+](cc2c1O)CCc1cc2c(cc1-3)OCO2 | – | – | – | – | Active | Active

More lines, in order of falling IC50 [1], values ahead:

Row | IC50 [1] [µM] | IC50 [2] [µM] | IC50 [3] [µM] | IC50 [4] [µM] | inhibition [5] | inhibition [6] | Structure (SMILES)
13 | 14.2 | 4.08 | – | – | – | – | COc1cccc(C(=O)Nc2ccc(-c3cc4ccc(OC)c(O)c4cn3)cc2)c1
14 | 11.1 | 2.72 | – | – | – | – | COc1ccc(-c2cc3ccc(OC)c(OC)c3cn2)cc1
15 | 7.81 | 0.34 | > 30 | > 30 | – | – | COc1ccc2cc(-c3ccccc3)ncc2c1OC
16 | 6.13 | 1.16 | – | – | – | – | COc1ccc2cc(-c3ccc(NC(=O)C(F)(F)F)cc3)ncc2c1O
17 | 5.1 | 0.28 | > 30 | 25.8 | – | – | COc1ccc2cc(-c3ccc4c(c3)OCO4)ncc2c1O
18 | 4.54 | 3.36 | – | – | – | – | COc1ccc2cc(-c3ccc(NS(=O)(=O)C4CC4)cc3)ncc2c1O
19 | 4.45 | 0.19 | > 30 | 14.6 | – | – | COc1ccc2cc(-c3ccc(NC(=O)c4ccccc4)cc3)ncc2c1O
20 | 2.11 | 0.35 | > 30 | > 30 | – | – | COc1ccc2cc(-c3ccc(NC(C)=O)cc3)ncc2c1O
